{
  "source": "patent US8163702B2",
  "about": "“Treatment of melanoma” (SciClone Pharmaceuticals, Inc., priority 2006, dated 2012)",
  "key": {"B16 cell line": {"system": "B16 cell line", "experiment": "Apoptosis by DNA flow cytometric analysis (propidium iodide)", "format": "cell-based, murine", "details": "propidium iodide flow cytometry", "procedure": "Apoptosis was assessed by DNA flow cytometric analysis. At each concentration of SCV-07, adherent cells were detached from the plates by trypsinization, pooled with the floating cells and fixed with 50% acetone:methanol 1:4 in PBS. The cells were suspended (1×10^6/ml) in PBS containing 50 μg/ml of propidium iodide (PI) and 100 KU/ml of RNase and incubated in the dark at room temperature for 30 min. The DNA content per cell was evaluated by PI fluorescence measured on a linear scale using a FACScan flow cytometer (Becton & Dickinson, San Jose, Calif.). Apoptotic cells show a diminished staining, in the red fluorescence channel, below the G0/G1 population of normal diploid cells, and are represented by a broad hypodiploid peak due to DNA fragmentation following apoptotic events. This is easily distinguishable from the narrow peak of cells with diploid DNA content. The fraction of apoptotic cells was therefore calculated by integrating the pre-G1 peak."}, "spleen lymphocytes": {"system": "spleen lymphocytes", "details": "cited from earlier work"}},
  "data": [
    {"smiles": "N[C@H](CCC(=O)N[C@@H](Cc1c[nH]c2ccccc12)C(=O)O)C(=O)O", "note": "[SCV-07, γ-D-glutamyl-L-tryptophan]", "values": [
      {"measurement": "percentage of apoptotic cell death", "setting": "B16 cell line", "result": "could not evidence any significant effect"},
      {"measurement": "Con-A-induced interleukin-2 (IL-2) production and IL-2 receptor expression", "setting": "spleen lymphocytes", "result": "increases"}
    ]}
  ]
}
